Reference: patent publication US20190374509A1, “Methods of Using Metamizole for Treatment of Pyrexia in Equines” (Kindred Biosciences, Inc., priority 2018, published 2019)
Several values for one entry are separate records, joined by “and”; a condition that tells them apart may be missing. Equal values may be shown once.

System: horses
Assay: Margin of safety study, IV three times daily for 9 days: coagulation panel (prothrombin time, APTT, fibrinogen)
Assay type: in vivo
Conditions: for Prothrombin Time LS Means: averaged over time and sex
Procedure: A study was conducted to evaluate the margin of safety of metamizole when administered intravenously to horses for 9 days at doses of 0 mg/kg (0×), 30 mg/kg (1×), 60 mg/kg (2×), and 90 mg/kg (3×) of body weight three times daily (TID), every 8 hours±30 min.
This was a prospective, blinded, randomized, placebo-controlled, parallel-group laboratory study in research horses. Thirty-two horses were enrolled in the study (Table 1).
Treatment phase involved administration of the investigational drug or placebo. The investigational drug was a sterile injectable formulation of dipyrone (Zimeta™, Corden Pharma, Caponago, Italy) (500 mg/mL) in 100 mL glass bottles. The placebo was sterile injectable saline (Nova-Tech Inc, Grand Island, NE) (0.9% sodium chloride) in 500 mL plastic bottles labeled for veterinary use. Dipyrone treatment groups were 30 mg/kg (1×), 60 mg/kg (2×), and 90 mg/kg (3×). Placebo treatment group was saline administered at a volume to match the 3× dipyrone group (0×). The dose was calculated based on body weight and administered three times daily for nine consecutive days. Due to the large volume of injection at the higher dose groups, treatment was administered via indwelling intravenous (IV) catheters. Intravenous catheters were placed using standard techniques. Horses were sedated with xylazine (AnaSed® LA, VetOne, MWI, Boise, Id.) and the skin was desensitized with subcutaneous injection of lidocaine (VetOne, MWI, Boise, Id.). Intravenous catheters were replaced at the discretion of the study director and were maintained with heparinized saline flush prior to and following dose administration.
Randomization occurred on Study Day −1. […] .
For continuous endpoints with repeated post-treatment measurements (serum chemistry, coagulation, hematology, urinalysis, body weight, body temperature, heart rate and respiratory rate), repeated measurement analysis of covariance (SAS MIXED procedure RMANCOVA) was used to evaluate a model including treatment, time, sex, treatment by sex interaction, treatment by time interaction, and treatment by time by sex three-way interaction as fixed effects. In addition, baseline values were included as a covariate and remained in the model regardless of its significance. Baseline values were defined as the values prior to and nearest to the first dosing. The covariance structures for repeated measures analysis of covariance (RMANCOVA) were selected from compound symmetry (CS) and compound symmetry heterogeneous variances (CSH), since only two post baseline measurements were collected in this study. The Kenward-Roger approximation was used to calculate denominator degrees of freedom for statistical tests. The minimum Akaike Information Criterion was used to select the covariance structure.
In Table 6 below the percent of samples in each treatment group that were above the upper reference range limit of 12 seconds is listed for Days 4 and 8.

[1] = 1X, 30 mg/kg IV every 8 hours, Day 4
[2] = 1X, 30 mg/kg IV every 8 hours, Day 8
[3] = 2X, 60 mg/kg IV every 8 hours, Day 4
[4] = 2X, 60 mg/kg IV every 8 hours, Day 8
[5] = 3X, 90 mg/kg IV every 8 hours, Day 4
[6] = 3X, 90 mg/kg IV every 8 hours, Day 8
[7] = 3X, 90 mg/kg IV every 8 hours, Day 8, only 7 samples
[8] = 30, 60, 90 mg/kg IV every 8 hours for 9 days vs placebo

Cc1c(N(C)CS(=O)(=O)O)c(=O)n(-c2ccccc2)n1C [dipyrone, [(2,3-dihydro-1,5-dimethyl-3-oxo-2-phenyl-1H-pyrazol-4-yl)methylamino] methanesulfonic acid]
Percent of samples with PT >12 sec [1]: 100% | Percent of samples with PT >14 sec [1]: 25% | Prothrombin Time Day 4 Range [1]: 12.6 to 14.6 s | Range of PT values >14 sec [1]: 14.1 to 14.6 s | Percent of samples with PT >12 sec [2]: 100% | Percent of samples with PT >14 sec [2]: 13% | Prothrombin Time Day 8 Range [2]: 12.3 to 15.2 s | Range of PT values >14 sec [2]: (15.2) sec | Prothrombin Time LS Means (1X, 30 mg/kg IV every 8 hours): 13.374 s and 13.374 ± 0.4062 s | Percent of samples with PT >12 sec [3]: 100% | Percent of samples with PT >14 sec [3]: 13% | Prothrombin Time Day 4 Range [3]: 12.7 to 15.8 s | Range of PT values >14 sec [3]: 15.8 s | Percent of samples with PT >12 sec [4]: 100% | Percent of samples with PT >14 sec [4]: 50% | Prolongation of PT observed, number of horses [4]: 1 | Prothrombin Time Day 8 Range [4]: 12.8 to 21.6 s | Range of PT values >14 sec [4]: (14.7-21.6) sec | Prothrombin Time LS Means (2X, 60 mg/kg IV every 8 hours): 14.524 s and 14.524 ± 0.4064 s | Percent of samples with PT >12 sec [5]: 100% | Percent of samples with PT >14 sec [5]: 75% | Prothrombin Time Day 4 Range [5]: 13.4 to 15.9 s | Range of PT values >14 sec [5]: 14.6 to 15.9 s | Prolongation of PT observed, number of horses [6]: 1 | Prothrombin Time Day 8 Range [6]: 12.7 to 21.9 s | Range of PT values >14 sec [6]: (14.3-21.9) sec | Percent of samples with PT >12 sec [7]: 100%^4 | Percent of samples with PT >14 sec [7]: 71%^4 | Prothrombin Time LS Means (3X, 90 mg/kg IV every 8 hours): 14.946 s and 14.946 ± 0.4396 s | Activated partial thromboplastin time (APTT) or fibrinogen [8]: no statistically significant differences | Effect on prothrombin time (PT) [8]: statistically significant main treatment effect of prolongation of prothrombin time (PT)
